Test results as given in EP1100483B1, “GLUCOCORTICOID-SELECTIVE ANTI-INFLAMMATORY AGENTS” (Abbott Laboratories, priority 1998, dated 2000).

What follows are compounds tested against T1, minerocorticoid receptor (MR) (Homo sapiens, UniProt P08235) (assay: soluble minerocorticoid receptor (MR) binding assay, [3H]-aldosterone competition). Details: 3-4 nM [3H]-aldosterone, 4 °C for 18 hours; Cheng-Prusoff.
T1 construct: made in house; host or cells: SF21 insect cells (baculovirus)
T1 sequence (P08235 1-984): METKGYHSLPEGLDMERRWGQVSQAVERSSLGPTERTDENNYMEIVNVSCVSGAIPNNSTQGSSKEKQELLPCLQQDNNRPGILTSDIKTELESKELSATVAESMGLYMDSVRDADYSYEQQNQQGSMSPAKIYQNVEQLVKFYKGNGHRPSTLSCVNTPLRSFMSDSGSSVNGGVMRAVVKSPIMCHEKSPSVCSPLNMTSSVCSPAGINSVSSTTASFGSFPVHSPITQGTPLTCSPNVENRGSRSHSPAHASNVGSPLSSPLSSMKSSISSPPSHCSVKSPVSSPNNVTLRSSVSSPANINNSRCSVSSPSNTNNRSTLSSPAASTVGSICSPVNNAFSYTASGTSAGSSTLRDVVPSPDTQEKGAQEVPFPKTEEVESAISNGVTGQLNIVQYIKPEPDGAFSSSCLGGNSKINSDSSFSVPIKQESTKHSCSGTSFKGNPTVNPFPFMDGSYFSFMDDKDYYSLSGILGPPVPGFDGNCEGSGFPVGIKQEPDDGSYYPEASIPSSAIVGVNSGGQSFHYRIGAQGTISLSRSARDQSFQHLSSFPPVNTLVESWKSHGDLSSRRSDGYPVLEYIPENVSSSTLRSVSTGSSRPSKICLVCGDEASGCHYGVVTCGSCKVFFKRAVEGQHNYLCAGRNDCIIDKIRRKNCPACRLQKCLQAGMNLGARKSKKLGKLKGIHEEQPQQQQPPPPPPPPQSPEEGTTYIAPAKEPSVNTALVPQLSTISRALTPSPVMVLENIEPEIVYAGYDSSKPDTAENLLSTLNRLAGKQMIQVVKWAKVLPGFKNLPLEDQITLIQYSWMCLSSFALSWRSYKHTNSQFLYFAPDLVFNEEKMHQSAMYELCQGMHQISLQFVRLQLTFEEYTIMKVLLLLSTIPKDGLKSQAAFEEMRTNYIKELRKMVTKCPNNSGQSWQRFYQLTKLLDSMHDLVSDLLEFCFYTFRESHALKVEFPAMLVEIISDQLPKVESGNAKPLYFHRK
From the text: For soluble minerocorticoid receptor (MR) binding assays, [^3H]-aldosterone (75-85 Ci/mmol) was purchased from New England Nuclear (Boston, MA), aldosterone was purchased from Sigma Chemical Co. (St. Louis, MO), CHAPS and DTT were purchased from Boehringer Mannheim GmbH (W. Germany) and all other reagents were purchased from Sigma.
The methods concerning growth, purification, and assays of recombinant viruses followed the protocol outlined by Summers, M.D., Smith, G.E., A Manual of Methods for Baculovirus Vectors and Insect Cell Culture Procedures, Tex. Agric. Exp. Stn. [Bull], 1987, No. 155, hereby incorporated by reference. The recombinant plasmids were cotransfected into SF21 cells with wild type AcNPV DNA, and the recombinant viruses were plaque purified.
A receptor extract was prepared from the baculovirus system, and aliquots were stored at -80 °C until used. Typical protein concentrations for these extracts were between 10 and 20 mg/ml. Stock solutions of aldosterone or other competing compounds were prepared as either 5 mM ethanol or DMSO stock solutions and serial dilutions were carried out in 1:1 DMSO-ethanol. The assay buffer consisted of the following: 25 mM sodium phosphate, 10 mM potassium fluoride, 20 mM sodium molybdate, 10% glycerol, 2 mM DTT and 0.25 mM CHAPS, pH=7.3 at room temperature.
Receptor assays were performed with a final volume of 250 µL containing from 50-75 µg of extract protein, plus 3-4 nM [^3H]-aldosterone and varying concentrations of competing ligand (0 to 10,000 nM). Assays were set up using a 96-well minitube system and incubations were carried out at 4 °C for 18 hours. Equilibrium under these conditions of buffer and temperature was achieved by 6-8 hours. Nonspecific binding was defined as that binding remaining in the presence of 1000 nM unlabeled aldosterone. At the end of the incubation period, 200 µL of 6.25% hydroxyapatite was added in wash buffer (binding buffer in the absence of DTT and CHAPS). Specific ligand binding to receptor was determined by a hydroxyapatite-binding assay according to the protocol outlined by Wecksler, W.R., Norman, A.W., An Hydroxylapatite Batch Assay for the Quantitation of 1α, 25-Dihydroxyvitamin D3-Receptor Complexes, Anal. Biochem. 1979, 92, 314-323, hereby incorporated by reference. Hydroxyapatite absorbs the receptor-ligand complex, allowing for the separation of bound from free radiolabeled ligand. The mixture was vortexed, incubated for 10 minutes at 4 °C, centrifuged, and the supernatant was removed. The hydroxyapatite pellet was washed twice more with the wash buffer. The amount of receptor-ligand complex was determined by liquid scintillation counting of the hydroxyapatite pellet after the addition of […] EcoScint A scintillation cocktail from National Diagnostics (Atlanta, GA.).
After correcting for nonspecific binding, IC50 values were determined. […] The IC50 values were determined graphically from a log-logit plot of the data. […] Standards are included in each assay and resulting Ki values are determined by use of a modified Cheng-Prusoff equation and used to calculate Ki values for "unknown analogs" as outlined by DeBlasi, A., O'Reilly, K., Motulsky, H.J., Calculating Receptor Number from Binding Experiments Using Same Compound As Radioligand and Competitor, TIPS 1989, 10.227-229, hereby incorporated by reference.
`CNc1ccc(C(c2ccc(NC)cc2)c2cc(Cl)ccc2Cl)cc1` [Example 27, 4',4" bis(methylamino)-2,5-dichlorotriphenylmethane] was tested, and the Ki was over 10000 nM. For `CNc1ccc(C(c2ccc(N(C)CCOC(C)=O)cc2)c2cc([N+](=O)[O-])ccc2Cl)cc1` (stereo not shown) [Example 49, 4'-methylamino-4"-(N-(2-acetoxyethyl)-N-methylamino)-2-chloro-5-nitrotriphenylmethane], the Ki was 3910 nM. Work on `CNc1ccc(C(c2ccc(N(C)C)cc2)c2cc([N+](=O)[O-])ccc2Cl)cc1` (stereo not shown) [Example 39, 4'-dimethylamino-4"-methylamino-2-chloro-5-nitrotriphenylmethane] yielded a Ki of 2900 nM. `CC(=O)OCCN(C)c1ccc(C(c2ccc(N(C)CCOC(C)=O)cc2)c2cc([N+](=O)[O-])ccc2Cl)cc1` [Example 31, 4',4" bis(N-(2-acetoxyethyl) N-methylamino)-2-chloro-5-nitrotriphenylmethane] showed a Ki of 3910 nM. `CN(C)c1ccc(C(c2ccc(N(C)C)cc2)c2cc([N+](=O)[O-])ccc2Cl)cc1` [Example 1, 4',4" bis(dimethylamino)-2-chloro-5-nitrotriphenylmethane] gave a Ki of 2900 nM. `CNc1ccc(C(c2ccc(NC)cc2)c2cc([N+](=O)[O-])ccc2Cl)cc1` [Example 23, 4',4" bis(methylamino)-2-chloro-5-nitrotriphenylmethane] showed a Ki of over 10000 nM. Work on `CN(C)c1ccc(C(Oc2ccccc2)c2cc([N+](=O)[O-])ccc2Cl)cc1` (stereo not shown) [Example 52, phenyl-[(4'-dimethylaminophenyl)-(2-chloro-5-nitrophenyl)methyl] ether] yielded a Ki of 3110 nM. `CN(C)c1ccc(C(c2ccc(N(C)CCO)cc2)c2cc([N+](=O)[O-])ccc2Cl)cc1` (stereo not shown) [Example 42, 4'-dimethylamino-4"-(N-methyl-N-(2-hydroxyethyl)amino)-2-chloro-5-nitrotriphenylmethane] showed a Ki of 2900 nM. `CC(=O)OCCN(C)c1ccc(C(c2ccc(N(C)C)cc2)c2cc([N+](=O)[O-])ccc2Cl)cc1` (stereo not shown) [Example 51, 4'-dimethylamino-4"-(N-methyl-N-(2-acetoxyethyl)amino)-2-chloro-5-nitrotriphenylmethane] gave a Ki of over 10000 nM. `CN(C)c1ccc(C(c2ccc(N(C)C)cc2)c2cc(Cl)ccc2Cl)cc1` [Example 24, 4',4" bis(dimethylamino)-2,5-dichlorotriphenylmethane] showed a Ki of 2900 nM. With `CN(CCO)c1ccc(C(c2ccc(N(C)CCO)cc2)c2cc([N+](=O)[O-])ccc2Cl)cc1` [Example 32, 4',4" bis(N-(2-hydroxyethyl) N-methylamino)-2-chloro-5-nitrotriphenylmethane] the Ki was 3910 nM. Work on `O=[N+]([O-])c1ccc(Cl)c(C(c2ccc(NCc3ccccc3)cc2)c2ccc(NCc3ccccc3)cc2)c1` [Example 36, 4',4" bis(N-benzylamino)-2-chloro-5-nitrotriphenylmethane] yielded a Ki of 2900 nM. For `CN(C)c1ccc(C(Sc2ccccc2)c2cc([N+](=O)[O-])ccc2Cl)cc1` (stereo not shown) [Example 54, phenyl-[(4'-dimethylaminophenyl)-(2-chloro-5-nitrophenyl)methyl]thioether], the Ki was 2900 nM.
